Results: patent US11046716B2, “Beta-lactamase inhibitors” (priority 2015, dated 2021)

Assays:
SHV-5 = target: T1, SHV-5 (Klebsiella pneumoniae, UniProt P0A3M1); experiment: β-lactamase enzyme inhibition assay, SHV-5 (cefotaxime substrate); assay type: biochemical
T1 construct: made in house; host or cells: E. coli BL21(DE3)
Method in brief: (§1)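 Untagged enzyme from E. coli BL21(DE3), purified by Capto S then Superdex 75; 15 min 37 °C preincubation with inhibitor; KPC-2 read with imipenem at 300 nm, SHV-5 with cefotaxime at 260 nm, OXA-1 with nitrocefin 100 μM final at 486 nm; 10 min kinetic read; IC50 vs uninhibited wells.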

KPC-2 = target: T2, KPC-2 (Klebsiella pneumoniae, UniProt Q9F663); experiment: β-lactamase enzyme inhibition assay, KPC-2 (imipenem substrate); assay type: biochemical; settings: Class A; imipenem substrate, 300 nm; read-out: KPC-2
T2 construct: made in house; host or cells: E. coli BL21(DE3)
T2 sequence (Q9F663 25-293, looked up): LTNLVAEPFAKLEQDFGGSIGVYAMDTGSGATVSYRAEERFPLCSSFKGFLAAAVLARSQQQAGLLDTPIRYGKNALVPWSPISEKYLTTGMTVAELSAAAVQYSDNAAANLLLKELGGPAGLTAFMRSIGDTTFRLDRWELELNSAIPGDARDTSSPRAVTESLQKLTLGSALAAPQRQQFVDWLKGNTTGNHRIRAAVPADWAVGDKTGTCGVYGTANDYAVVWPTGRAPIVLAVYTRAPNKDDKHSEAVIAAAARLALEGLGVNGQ
Method in brief: as §1

VIM-2 = target: T3, VIM-2 (Escherichia coli, UniProt Q5U7L7); experiment: β-lactamase enzyme inhibition assay, VIM-2 (nitrocefin substrate); assay type: biochemical; settings: Class B; nitrocefin substrate, 486 nm; read-out: VIM-2
T3 construct: made in house; host or cells: E. coli BL21(DE3)
Method in brief: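 Enzyme + inhibitor, 37 °C, 15 min; nitrocefin 100 μM final; A486 read for 10 min. % inhibition vs no-inhibitor wells per concentration; IC50 = concentration halving initial hydrolysis rate.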

AmpC = target: T4, AmpC (Enterobacter cloacae, UniProt P05364); experiment: β-lactamase enzyme inhibition assay, p99 AmpC (nitrocefin substrate); assay type: biochemical
T4 construct: made in house; host or cells: E. coli BL21(DE3)
T4 sequence (P05364 21-381): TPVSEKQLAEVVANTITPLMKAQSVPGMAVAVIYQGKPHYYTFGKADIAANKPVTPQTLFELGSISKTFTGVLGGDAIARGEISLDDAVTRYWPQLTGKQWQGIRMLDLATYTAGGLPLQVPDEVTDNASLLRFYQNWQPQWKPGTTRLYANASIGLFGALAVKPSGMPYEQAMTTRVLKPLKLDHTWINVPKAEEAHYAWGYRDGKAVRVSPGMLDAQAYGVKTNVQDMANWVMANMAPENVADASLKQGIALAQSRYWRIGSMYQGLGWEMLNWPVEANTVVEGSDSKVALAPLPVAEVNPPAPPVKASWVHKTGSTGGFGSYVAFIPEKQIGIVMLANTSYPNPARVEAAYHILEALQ
Method in brief: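 Untagged enzyme from E. coli BL21(DE3), purified by Capto S then Superdex 75; 15 min 37 °C preincubation with inhibitor; 10 min kinetic read; IC50 vs uninhibited wells.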

OXA-48 = OXA-48 (UniProt Q6XEC0); experiment: β-lactamase enzyme inhibition assay, Class D oxacillinase; assay type: biochemical; settings: read-out: OXA-48
[1] = system: E. coli expressing the Class A Extended Spectrum Beta-Lactamase (ESBL) CTX-M-15; experiment: Broth microdilution MIC assay with ceftazidime, E. coli CTX-M-15; assay type: cell-based; settings: Fixed CAZ (ceftazidime) 4 μg/mL; E. coli ESBL4 CTX-M-15
Method in brief: (§2)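 CAMHB; cpd 2-fold serial dilution, 16–0.125 μg/mL final; β-lactam static 4 μg/ml; CLSI inoculation; 16–20 h, 37° C; MIC read by eye.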

[2] = system: E. cloacae expressing the Class C P99; experiment: Broth microdilution MIC assay with ceftazidime, E. cloacae P99; assay type: cell-based; settings: Fixed CAZ (ceftazidime) 4 μg/mL; E. cl. 144200 p99 AmpC
Text: To determine the ability of test compounds to potentiate the inhibition of the growth of bacterial strains that produce beta-lactamase enzymes in the presence of a β-lactam antibiotic, classic cell based broth microdilution MIC assays were employed. Six bacteria strains producing beta-lactamase enzymes were used: E. coli expressing the Class A Extended Spectrum Beta-Lactamase (ESBL) CTX-M-15, E. cloacae expressing the Class C P99, K. pneumoniae expressing the Class A carbapenemase KPC-2, P. aeruginosa expressing the Class B carbapenemase VIM-2, K. pneumoniae expressing the class A carbapenemase KPC-2 and the class B carbapenemase VIM-4, and K. pneumoniae producing the Class D carbapenemase OXA-48. The assay was conducted in Cation Adjusted Mueller Hinton Broth (CAMHB, BD #212322, BD Diagnostic Systems, Sparks, Md.). Bacteria strains were grown for 3-5 hours in CAMBH broth. Test compounds (Examples 1-94) were added to a microtiter plate in 2-fold serial dilutions in CAMHB in a final concentration range of 16 μg/mL to 0.125 μg/ml. An overlay of CAMHB containing a Beta-lactam was added to the compounds at a final static concentration of 4 μg/ml. […] In addition to the titration of test compounds the MICs of a panel of control beta-lactams is also tested to ensure the strains are behaving consistently from test to test. Once the test compound and antibiotics are added the plates can be inoculated according to CLSI broth microdilution method. After inoculation the plates are incubated for 16-20 hours at 37° C. then the Minimal Inhibitory Concentration (MIC) of the test compound is determined visually.
Using the methodology described above, examples of the current invention were evaluated for their ability to inhibit the growth of β-lactamase-producing bacteria in the presence of a β-lactam antibiotic.

[3] = system: K. pneumoniae expressing the Class A carbapenemase KPC-2; experiment: Broth microdilution MIC assay with meropenem, K. pneumoniae KPC-2; assay type: cell-based; settings: Fixed Mero (meropenem) 4 μg/mL; K. p. 156319 KPC-3
Method in brief: as §2

[4] = system: P. aeruginosa expressing the Class B carbapenemase VIM-2; experiment: Broth microdilution MIC assay with meropenem, P. aeruginosa VIM-2; assay type: cell-based; settings: Fixed Mero (meropenem) 4 μg/mL; P. aerug. 2775 VIM-2
Method in brief: as §2

[5] = system: K. pneumoniae expressing the class A carbapenemase KPC-2 and the class B carbapenemase VIM-4; experiment: Broth microdilution MIC assay with meropenem, K. pneumoniae KPC-2 and VIM-4; assay type: cell-based; settings: Fixed Mero (meropenem) 4 μg/mL; K. p. A-1797 KPC-2 VIM-4
Method in brief: as §2

[6] = system: K. pneumoniae producing the Class D carbapenemase OXA-48; experiment: Broth microdilution MIC assay with meropenem, K. pneumoniae OXA-48; assay type: cell-based; settings: Fixed Mero (meropenem) 4 μg/mL; K. p. 11978 OXA-48
Method in brief: as §2

T1 sequence (P0A3M1 22-286): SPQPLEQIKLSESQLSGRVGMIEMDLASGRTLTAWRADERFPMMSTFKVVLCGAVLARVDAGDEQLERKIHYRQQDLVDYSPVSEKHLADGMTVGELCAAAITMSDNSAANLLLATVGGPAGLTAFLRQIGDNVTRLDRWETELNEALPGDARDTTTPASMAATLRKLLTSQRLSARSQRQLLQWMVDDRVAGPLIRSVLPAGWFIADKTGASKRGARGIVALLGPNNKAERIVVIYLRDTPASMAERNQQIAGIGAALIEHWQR

Compound | IC50 (SHV-5) [nM] | IC50 (KPC-2) [nM] | IC50 (VIM-2) [nM] | IC50 (AmpC) [nM] | IC50 (OXA-48) [nM] | MIC (μg/mL) of Exemplary Compounds in presence of fixed β-lactams: E. coli ESBL4 CTX-M-15 [1] | MIC (μg/mL) of Exemplary Compounds in presence of fixed β-lactams: E. cl. 144200 p99 AmpC [2] | MIC (μg/mL) of Exemplary Compounds in presence of fixed β-lactams: K. p. 156319 KPC-3 [3] | MIC (μg/mL) of Exemplary Compounds in presence of fixed β-lactams: P. aerug. 2775 VIM-2 [4] | MIC (μg/mL) of Exemplary Compounds in presence of fixed β-lactams: K. p. A-1797 KPC-2 VIM-4 [5] | MIC (μg/mL) of Exemplary Compounds in presence of fixed β-lactams: K. p. 11978 OXA-48 [6]
NCc1cnnn1CC(=O)N[C@H]1Cc2cccc(C(=O)O)c2OB1O [Example 13, (R)-3-(2-(5-(aminomethyl)-1H-1,2,3-triazol-1-yl)acetamido)-2-hydroxy-3,4-dihydro-2H-benzo[e][1,2]oxaborinine-8-carboxylic acid] | 100 to 1000 | < 100 | 100 to 1000 | < 100 | 100 to 1000 | B (B represents an MIC between 1 and 16 μg/mL inclusive) | C (C represents an MIC of <1 μg/mL) | B (B represents an MIC between 1 and 16 μg/mL inclusive) | B (B represents an MIC between 1 and 16 μg/mL inclusive) | B (B represents an MIC between 1 and 16 μg/mL inclusive) | B (B represents an MIC between 1 and 16 μg/mL inclusive)
CNCc1nnn(CC(=O)N[C@H]2Cc3cccc(C(=O)O)c3OB2O)c1CO [Example 14, (R)-2-hydroxy-3-(2-(5-(hydroxymethyl)-4-((methylamino)methyl)-1H-1,2,3-triazol-1-yl)acetamido)-3,4-dihydro-2H-benzo[e][1,2]oxaborinine-8-carboxylic acid] | 100 to 1000 | 100 to 1000 | 100 to 1000 | < 100 | 100 to 1000 | B (B represents an MIC between 1 and 16 μg/mL inclusive) | C (C represents an MIC of <1 μg/mL) | B (B represents an MIC between 1 and 16 μg/mL inclusive) | B (B represents an MIC between 1 and 16 μg/mL inclusive) | B (B represents an MIC between 1 and 16 μg/mL inclusive) | B (B represents an MIC between 1 and 16 μg/mL inclusive)
CNCc1c(CO)nnn1CC(=O)N[C@H]1Cc2cccc(C(=O)O)c2OB1O [Example 15, (R)-2-hydroxy-3-(2-(4-(hydroxymethyl)-5-((methylamino)methyl)-1H-1,2,3-triazol-1-yl)acetamido)-3,4-dihydro-2H-benzo[e][1,2]oxaborinine-8-carboxylic acid] | 100 to 1000 | 100 to 1000 | < 100 | < 100 | 100 to 1000 | C (C represents an MIC of <1 μg/mL) | C (C represents an MIC of <1 μg/mL) | B (B represents an MIC between 1 and 16 μg/mL inclusive) | C (C represents an MIC of <1 μg/mL) | B (B represents an MIC between 1 and 16 μg/mL inclusive) | B (B represents an MIC between 1 and 16 μg/mL inclusive)
